What was measured:
[1] = biological target: GTP binding domain of Ras; details: literature (Feuerstein 1987; John 1990); cited from earlier work
[2] = biological target: T1, K-Ras (wild type) (Homo sapiens, UniProt P01116); test: MicroScale Thermophoresis (MST), GTP affinity; assay type: binding
Excerpt: (§1) As disclosed in International Application No. PCT/US2018/038613 and U.S. patent application Ser. No. 16/013,872, the affinity of GTP for the GTP binding domain of K-Ras utilizing a Scintillation Proximity Assay (SPA) and MicroScale Thermophoresis (MST) has been measured. These methods were not available when Wittinghofer and colleagues undertook their studies.
(§2) This therefore led to the novel, unanticipated conclusion that compounds such as small molecules could be discovered that would bind to a Ras GTP binding domain and compete with the binding of GTP to Ras.
(§3) See Khawaja et al., “Scintillation proximity assay in lead discovery”, Expert Opin. Drug Discov., 2008 November; 3 (11): 1267-80 regarding SPA procedures. See the following references regarding MST technology: Wienken et al., Nature Communications (2010), Protein binding assays in biological liquids using MicroScale Thermophoresis; Jerabek-Willemsen et al., ASSAY and Drug Development Technologies (2011), Molecular interaction studies using MicroScale Thermophoresis; Lin et al., Cell (2012), Inhibition of basal FGF receptor signaling by dimeric Grb2; Seidel et al., Angewandte Chemie (2012), Label-Free MicroScale Thermophoresis discriminates sites and affinity of protein-ligand binding; Seidel et al., Methods (2012), MicroScale Thermophoresis quantifies biomolecular interactions under previously challenging conditions; Parker & Newstead, Nature (2014), Molecular basis of nitrate uptake by the plant nitrate transporter NRT1.1; and Jerabek-Willemsen et al., Journal of Molecular Structure (2014), MicroScale Thermophoresis: Interaction analysis and beyond.

[3] = biological target: T2, Rho-A (Homo sapiens, UniProt P61586); test: MicroScale Thermophoresis (MST), GTP affinity; assay type: binding
Excerpt: as §1, §2, §3

[4] = biological target: T3, K-Ras (G12D) (Homo sapiens, UniProt P01116, G12D); test: MicroScale Thermophoresis (MST), GTP affinity; assay type: binding
Excerpt: as §1, §2, §3

[5] = biological target: T4, K-Ras (G12C) (Homo sapiens, UniProt P01116, G12C); test: MicroScale Thermophoresis (MST), GTP affinity; assay type: binding
Excerpt: as §1, §2, §3

[6] = biological target: T5, K-Ras (Q61H) (Homo sapiens, UniProt P01116, Q61H); test: MicroScale Thermophoresis (MST), GTP affinity; assay type: binding
Excerpt: as §1, §2, §3

[7] = biological target: T1, K-Ras (wild type); test: Scintillation Proximity Assay (SPA), GTP affinity; assay type: binding
Excerpt: as §1, §2, §3

[8] = biological target: T3, K-Ras (G12D); test: Scintillation Proximity Assay (SPA), GTP affinity; assay type: binding
Excerpt: as §1, §2, §3

[9] = biological target: T4, K-Ras (G12C); test: Scintillation Proximity Assay (SPA), GTP affinity; assay type: binding
Excerpt: as §1, §2, §3

[10] = biological target: T5, K-Ras (Q61H); test: Scintillation Proximity Assay (SPA), GTP affinity; assay type: binding
Excerpt: as §1, §2, §3

[11] = biological target: T6, Rac-1 (Homo sapiens, UniProt P63000); test: MicroScale Thermophoresis (MST), GTP affinity; assay type: binding
[12] = biological target: K-Ras GTP binding domain; test: SPA and MST studies, GTP affinity across wild type and mutant K-Ras
Excerpt: as §2, §3

[13] = biological target: Rac-1 and Rho-A; test: SPA and MST studies, GTP affinity for Rho subfamily members; details: read-out: affinity of GTP for the binding domain of Rho subfamily members
Excerpt: as §2, §3

[14] = biological target: T2, Rho-A; test: Scintillation Proximity Assay (SPA), GTP affinity; assay type: binding
[15] = biological target: T6, Rac-1; test: Scintillation Proximity Assay (SPA), GTP affinity; assay type: binding
[16] = test system: MEK phosphorylation; test: Western MEK cell-based phosphorylation assay, NCI H1975; details: Homo sapiens
Experimental: (§4) Cell lines: Human NSCLC cells NCI-H1975 and tumor-derived pancreatic cancer cell lines Panc-1 and MIA-PaCa-2 were all purchased from American Type Culture Collection and grown in complete RPMI medium (NCI-H1975) or DMEM-High Glucose (Panc1 and MIA-PaCa-2), supplemented with penicillin (100 U/mL), streptomycin (100 μg/mL), and 10% heat-inactivated FBS at 37° C. in a humidified incubator with 5% CO2.
(§5) Method: Cells were plated at 350000 cells/well density in a 12-well plate, allowed 3 hours to adhere to the plate, then starved in the appropriate medium in the presence of 0.5% FBS overnight. The small molecules to be tested were added to the cells in the final concentration of 10 μM in the presence of 0.3% DMSO for 6 hours incubation at 37° C. […] Protein concentration was assessed by BCA protein assay (Thermo Scientific). Phosphorylation level of MEK was determined by western blot.
(§6) Western blot protocol: Equal amounts of protein (15-50 μg) were separated by SDS-PAGE and transferred to nitrocellulose membranes (Invitrogen by Thermo Fisher Scientific). […] Membranes were blocked with 10% milk and phosphorylation levels of MEK were assessed by incubating overnight at 4° C. with anti-phospho-MEK 1/2 (Ser217/Ser221) antibody (Cell Signaling) followed by HRP-conjugated secondary antibody (Jackson Immunoresearch, West Grove, PA). […]

[17] = test system: MEK phosphorylation; test: Western MEK cell-based phosphorylation assay, PANC-1; details: Homo sapiens
Experimental: as §4
Method: Cells were plated at 350000 cells/well density in a 12-well plate, allowed 3 hours to adhere to the plate, then starved in the appropriate medium in the presence of 0.5% FBS overnight. The small molecules to be tested were added to the cells in the final concentration of 10 μM in the presence of 0.3% DMSO for 6 hours incubation at 37° C. For IC50 value determination, serial dilutions of compounds were added to cells under the same conditions. Next, cells were stimulated with 1.5 ng/ml EGF for 15 minutes then cells were lysed with lysis buffer containing 1% Triton X-100, EDTA, and Halt™ Protease & Phosphatase Inhibitor Cocktail (Thermo Scientific). Protein concentration was assessed by BCA protein assay (Thermo Scientific). Phosphorylation level of MEK was determined by western blot.
Western blot protocol: Equal amounts of protein (15-50 μg) were separated by SDS-PAGE and transferred to nitrocellulose membranes (Invitrogen by Thermo Fisher Scientific). The membrane was stained with Ponceau S Stain (Boston BioProducts) to verify uniform protein loading. Membranes were blocked with 10% milk and phosphorylation levels of MEK were assessed by incubating overnight at 4° C. with anti-phospho-MEK 1/2 (Ser217/Ser221) antibody (Cell Signaling) followed by HRP-conjugated secondary antibody (Jackson Immunoresearch, West Grove, PA). Bands were incubated in Amersham ECL Prime Western Blotting Detection Reagent (GE Healthcare) and visualized using the ChemiDoc MP imaging system (Bio-Rad).

[18] = test system: MEK phosphorylation; test: Western MEK cell-based phosphorylation assay, MIA PaCa-2; details: Homo sapiens
Experimental: as §4, §5, §6

[19] = test system: GTP-bound RAS; test: Cell-based Ras-GTP pulldown assay, NCI H1975; details: Homo sapiens; for inhibition at 10 µM: 6 hours, EGF stimulation
Experimental: (§7) Cell lines: Human NSCLC cells NCI-H1975, and tumor-derived pancreatic cancer cell lines Panc-1, and MIA-PaCa-2, were all purchased from American Type Culture Collection and grown in complete RPMI medium (NCI-H1975) or DMEM-High Glucose (Panc1 and MIA-PaCa-2), supplemented with penicillin (100 U/mL), streptomycin (100 μg/mL), and 10% heat-inactivated FBS at 37° C. in a humidified incubator with 5% CO2.
(§8) Method: Cells were plated at 2·10^6 cells/well density in a 6-well plate, allowed 3 hours to adhere to the plate, then starved in the appropriate medium in the presence of 0.5% FBS overnight. The small molecules to be tested were added to the cells in the final concentration of 10 μM in the presence of 0.3% DMSO for 6 hours incubation at 37° C. For IC50 value determination, serial dilutions of compounds were added to cells under the same conditions. Next, cells were stimulated with 5 ng/mL EGF for 5 minutes, rinsed with ice-cold PBS and then lysed with 500 μL of lysis/binding/wash buffer (25 mM Tris-HCl, pH 7.2, 150 mM NaCl, 5 mM MgCl2, 5% glycerol, 1% NP40) from Active Ras Detection kit (Cell signaling Technology, #8821) supplemented with Halt™ Protease & Phosphatase Inhibitor Cocktail (Thermo Scientific). To account for significant differences in cell number due to the treatment, a small sample of lysate was saved for protein quantification and the rest of the lysate was snap frozen. Protein concentration was assessed by BCA protein assay (Thermo Scientific). To ensure that equal amount of protein undergoes RBD pulldown, lysates were subsequently thawed (at RT) and adjusted to 1 mg/mL with lysis/binding/wash buffer (0.5 mL volume). Equal amounts of lysate were then added to 0.5 mL lysis buffer containing RAF-RBD (1 mL total volume). Lysates were vortexed, incubated for 10 min on ice and subsequently pre-cleared at 14,000 rpm for 5 min at 4° C. 90% of the pre-cleared lysates were subsequently added to pre-washed glutathione agarose beads from Active Ras Detection kit (Cell signaling Technology, #8821) for 1 hour at 4 °C under constant rocking. The beads were subsequently pelleted, washed 3 times with lysis/binding/wash buffer, and eluted for western blotting with 50 μL of 1×SDS-PAGE sample buffer. Level of GTP-bound RAS was determined by western blot.
(§9) Western blot protocol: Equal volumes of eluate (25 μL) were separated by 16% SDS-PAGE and transferred to nitrocellulose membranes (Invitrogen by Thermo Fisher Scientific). The membrane was stained with Ponceau S Stain (Boston BioProducts) to verify uniform protein loading. […]

[20] = test system: GTP-bound RAS; test: Cell-based Ras-GTP pulldown assay, PANC-1; details: Homo sapiens; for inhibition at 10 µM: 6 hours, EGF stimulation
Experimental: as §7, §8, §9

[21] = test system: GTP-bound RAS; test: Cell-based Ras-GTP pulldown assay, MIA PaCa-2; details: Homo sapiens; for inhibition at 10 µM: 6 hours, EGF stimulation
Experimental: as §7, §8
Western blot protocol: Equal volumes of eluate (25 μL) were separated by 16% SDS-PAGE and transferred to nitrocellulose membranes (Invitrogen by Thermo Fisher Scientific). The membrane was stained with Ponceau S Stain (Boston BioProducts) to verify uniform protein loading. Membranes were blocked with 5% BSA in TBST and then incubated overnight at 4° C. with anti-RAS mouse monoclonal antibody from the Active Ras Detection kit (Cell signaling Technology, #8821), followed by HRP-conjugated secondary antibody (Jackson Immunoresearch, West Grove, PA). Membranes were incubated in Amersham ECL Prime Western Blotting Detection Reagent (GE Healthcare) and bands were visualized using the ChemiDoc MP imaging system (Bio-Rad).

T3 sequence (P01116 1-188 isoform P01116-2 G12D): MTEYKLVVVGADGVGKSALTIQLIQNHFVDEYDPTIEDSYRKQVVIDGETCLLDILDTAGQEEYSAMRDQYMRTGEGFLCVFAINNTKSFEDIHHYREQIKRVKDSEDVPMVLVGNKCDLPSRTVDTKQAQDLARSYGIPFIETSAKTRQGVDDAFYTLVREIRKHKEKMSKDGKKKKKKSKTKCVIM
T5 sequence (P01116 1-188 isoform P01116-2 Q61H): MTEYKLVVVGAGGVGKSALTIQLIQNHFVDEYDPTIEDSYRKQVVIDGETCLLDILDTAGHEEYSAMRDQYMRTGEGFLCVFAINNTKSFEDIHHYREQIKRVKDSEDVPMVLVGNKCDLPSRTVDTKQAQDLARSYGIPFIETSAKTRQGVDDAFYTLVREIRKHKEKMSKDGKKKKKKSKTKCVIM
T4 sequence (P01116 1-188 isoform P01116-2 G12C): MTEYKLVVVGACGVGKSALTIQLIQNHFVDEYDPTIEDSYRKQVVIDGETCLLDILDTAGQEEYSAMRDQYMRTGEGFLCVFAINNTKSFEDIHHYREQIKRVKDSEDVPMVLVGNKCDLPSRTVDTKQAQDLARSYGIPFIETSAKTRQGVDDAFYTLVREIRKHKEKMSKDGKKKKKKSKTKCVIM
T1 sequence (P01116 1-188 isoform P01116-2): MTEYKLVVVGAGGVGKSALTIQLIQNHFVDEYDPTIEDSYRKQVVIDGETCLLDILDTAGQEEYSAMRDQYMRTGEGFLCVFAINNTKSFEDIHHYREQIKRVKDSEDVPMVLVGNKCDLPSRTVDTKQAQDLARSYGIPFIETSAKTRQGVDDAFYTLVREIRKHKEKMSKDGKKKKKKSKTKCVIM
T2 sequence (P61586 whole entry): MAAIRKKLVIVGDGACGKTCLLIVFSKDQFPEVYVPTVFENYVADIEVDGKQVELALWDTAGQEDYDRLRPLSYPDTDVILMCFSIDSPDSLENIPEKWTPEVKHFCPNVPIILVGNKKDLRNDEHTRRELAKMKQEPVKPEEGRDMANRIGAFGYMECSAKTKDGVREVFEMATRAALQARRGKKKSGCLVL

Nc1nc2c(ncn2[C@@H]2O[C@H](COP(=O)(O)OP(=O)(O)O)[C@@H](O)[C@H]2O)c(=O)[nH]1 [GDP]
affinity for the GTP binding domain of Ras [1]: single to double digit picomolar

Nc1nc2c(ncn2[C@@H]2O[C@H](COP(=O)(O)OP(=O)(O)OP(=O)(O)O)[C@@H](O)[C@H]2O)c(=O)[nH]1 [GTP]
Kd [2]: 463 ± 2 nM
Kd [3]: 130 ± 5 nM
Kd [4]: 244 ± 12 nM
Kd [5]: 207 ± 46 nM
Kd [6]: 157 ± 21 nM
Kd [7]: 243 ± 15 nM
Kd [8]: 270 ± 15 nM
Kd [9]: 258 ± 18 nM
Kd [10]: 118 ± 11 nM
Kd [11]: 166 ± 10 nM
Kd [12]: 100 to 465 nM
Kd [13]: 120 to 170 nM
affinity for the GTP binding domain of Ras [1]: single to double digit picomolar
Kd [14]: 129 ± 12 nM
Kd [15]: 151 ± 14 nM

COCCNc1nc(-c2nccn2C)nc2sc(-c3cccc(OC)c3Cl)c(-c3ccccc3)c12 [drawing 476]
IC50 [16]: > 1000 nM
IC50 [17]: 750 to 1000 nM
IC50 [18]: 750 to 1000 nM

COc1cccc(-c2sc3nc(-c4nccn4C)nc(N4CCC(OC)C4)c3c2-c2ccccc2)c1F (stereo not drawn) [drawing 477]
IC50 [17]: > 1000 nM

CO[C@H]1CCC(Nc2nc(-c3nccn3C)nc3sc(-c4ccn(C)n4)c(-c4ccccc4)c23)C1 (stereo partly drawn) [drawing 478]
IC50 [16]: > 1000 nM
IC50 [17]: 750 to 1000 nM
IC50 [18]: > 1000 nM

COCCNc1nc(-c2nccn2C)nc2sc(-c3cccc(OC)c3Cl)c(-c3ccccc3)c12 [drawing 1076]
inhibition at 10 µM [19]: 76 to 100%
inhibition at 10 µM [20]: 76 to 100%
inhibition at 10 µM [21]: 76 to 100%

CO[C@H]1CCC(Nc2nc(-c3nccn3C)nc3sc(-c4ccn(C)n4)c(-c4ccccc4)c23)C1 (stereo partly drawn) [drawing 1077]
inhibition at 10 µM [19]: 76 to 100%
inhibition at 10 µM [20]: 76 to 100%
inhibition at 10 µM [21]: 76 to 100%

CO[C@H]1CC[C@@H](Nc2nc(-c3nccn3C)nc3sc(-c4ccn(C(C)C)n4)c(C4=CC=CCC=C4)c23)C1 [drawing 1078]
inhibition at 10 µM [21]: 76 to 100%

COCCNc1nc(-c2nccn2C)nc2sc(-c3cccc(OC)c3Cl)c(-c3ccccc3)c12 [drawing 1079]
IC50 [19]: > 1000 nM
IC50 [20]: 750 to 1000 nM
IC50 [21]: 750 to 1000 nM

CO[C@H]1CCC(Nc2nc(-c3nccn3C)nc3sc(-c4ccn(C)n4)c(-c4ccccc4)c23)C1 (stereo partly drawn) [drawing 1080]
IC50 [19]: > 1000 nM
IC50 [20]: 750 to 1000 nM
IC50 [21]: > 1000 nM

— patent publication US20250296938A1, “Compounds that Interact with the Ras Superfamily for the Treatment of Cancers, Inflammatory Diseases, Rasopathies, and Fibrotic Disease” (SHY Therapeutics, LLC, priority 2018, published 2025)
